Data on 7 molecules can be found in patent US20230339981A1, “KRAS G12D MODULATING COMPOUNDS” (priority 2022, published 2023).

The target in one experiment is GDP-loaded KRAS G12D (Homo sapiens (Human), UniProt P01116, G12D). Briefly: KRAS G12D (GDP) biochemical assay (TR-FRET probe displacement). As to conditions: 2 hours. In kind it is binding. Put shortly:
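Compound pre-incubated 30 min with GDP-loaded KRAS G12D in 50 mM Hepes pH 7.4, 150 mM NaCl, 5 mM MgCl2, 0.005% Tween-20, then Eu-streptavidin and TR-FRET probe added. After 2 h at room temperature, TR-FRET ratio read; IC50 is 50% ratio decrease, sigmoidal fit.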
For orientation: TR-FRET usually uses a lanthanide donor and a delayed reading to cut background.

For another experiment, the system named is GP2D (KRAS G12D) cells. The experiment can be described thus: 2D cell viability assay (CellTiter-Glo). In kind it is cell-based. The note with it: GP2d, 96 h, 4 days. Put shortly:
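GP2D (KRAS G12D) cells, 1000/well in RPMI + 10% FBS, were plated onto compound (1:3 DMSO series) and grown 4 days at 37 °C, 5% CO2 in 2D. CellTiter-Glo luminescence was read; EC50 is the concentration giving 50% signal decrease, from sigmoidal fit.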

Chain of GDP-loaded KRAS G12D (P01116-2 other isoform, or with tags, fused parts or gaps G12D): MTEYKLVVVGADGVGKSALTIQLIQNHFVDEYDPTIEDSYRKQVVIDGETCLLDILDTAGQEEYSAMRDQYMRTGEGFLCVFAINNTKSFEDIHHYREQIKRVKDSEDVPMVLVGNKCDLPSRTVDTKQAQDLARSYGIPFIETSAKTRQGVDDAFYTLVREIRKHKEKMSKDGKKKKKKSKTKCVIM

Usually IC50 stands for the concentration at which inhibition is half-maximal. Higher therefore signals a need for much substance. In general, EC50 refers to the midpoint of the concentration-response curve. Molecule `C#Cc1c(F)ccc2cc(O)cc(-c3nc4c5c(nc(OC[C@@]67CCCN6C[C@H](F)C7)nc5c3F)N3C[C@H]5CC[C@H](N5)[C@H]3[C@@H](C)O4)c12` [Example 61, 5-ethynyl-6-fluoro-4-((5R,5aS,6S,9R)-1-fluoro-12-(((2R,7aS)-2-fluorotetrahydro-1H-pyrrolizin-7a(5H)-yl)methoxy)-5-methyl-5a,6,7,8,9,10-hexahydro-5H-4-oxa-3,10a,11,13,14-pentaaza-6,9-methanonaphtho[1,8-ab]heptalen-2-yl)naphthalen-2-ol] gave an IC50 on GDP-loaded KRAS G12D of 26 nM. This molecule also yielded an EC50 with GP2D (KRAS G12D) cells of 520 nM.
`C#Cc1c(F)c(F)cc2cccc(-c3nc4c5c(nc(OC[C@@]67CCCN6C[C@H](F)C7)nc5c3F)N3C[C@H]5CC[C@H](N5)[C@H]3CO4)c12` [Example 62, (5aS,6S,9R)-2-(8-ethynyl-6,7-difluoronaphthalen-1-yl)-1-fluoro-12-(((2R,7aS)-2-fluorotetrahydro-1H-pyrrolizin-7a(5H)-yl)methoxy)-5a,6,7,8,9,10-hexahydro-5H-4-oxa-3,10a,11,13,14-pentaaza-6,9-methanonaphtho[1,8-ab]heptalene] registered an IC50 on GDP-loaded KRAS G12D of 7 nM. In the experiment with GP2D (KRAS G12D) cells, this molecule registered a 50% effective concentration (EC50) of 79 nM.
On the same counts, the results for `C#Cc1c(F)ccc2cc(O)cc(-c3nc4c5c(nc(OC[C@@]67CCCN6[C@H](COC(C(F)(F)F)(C(F)(F)F)C(F)(F)F)CC7)nc5c3F)N3C[C@H]5CC[C@H](N5)[C@H]3CC4)c12` [Example 63, 5-ethynyl-6-fluoro-4-((5aR,6S,9R)-1-fluoro-12-(((3S,7aS)-3-(((1,1,1,3,3,3-hexafluoro-2-(trifluoromethyl)propan-2-yl)oxy)methyl)tetrahydro-1H-pyrrolizin-7a(5H)-yl)methoxy)-4,5,5a,6,7,8,9,10-octahydro-3,10a,11,13,14-pentaaza-6,9-methanonaphtho[1,8-ab]heptalen-2-yl)naphthalen-2-ol] are 0.2 nM and 0.2 nM.
`C#Cc1c(F)ccc2cc(O)cc(-c3nc4c5c(nc(OC[C@@]67CCCN6C[C@H](F)C7)nc5c3F)N3C[C@H]5CC[C@H](N5)[C@@H]3[C@@H](C)C4)c12` [Example 64, 5-ethynyl-6-fluoro-4-((5S,5aS,6S,9R)-1-fluoro-12-(((2R,7aS)-2-fluorotetrahydro-1H-pyrrolizin-7a(5H)-yl)methoxy)-5-methyl-4,5,5a,6,7,8,9,10-octahydro-3,10a,11,13,14-pentaaza-6,9-methanonaphtho[1,8-ab]heptalen-2-yl)naphthalen-2-ol]: the half-maximal inhibitory concentration (IC50) at GDP-loaded KRAS G12D was 0.1 nM. In the experiment with GP2D (KRAS G12D) cells, this molecule registered a half-maximal effective concentration (EC50) of 0.3 nM.
On the same counts, the results for `Fc1ccc2c(-c3nc4c5c(nc(OC[C@@]67CCCN6C[C@H](F)C7)nc5c3F)N3C[C@H]5CC[C@H](N5)[C@H]3CO4)cccc2c1` [Example 66, (5aS,6S,9R)-1-fluoro-2-(6-fluoronaphthalen-1-yl)-12-(((2R,7aS)-2-fluorotetrahydro-1H-pyrrolizin-7a(5H)-yl)methoxy)-5a,6,7,8,9,10-hexahydro-5H-4-oxa-3,10a,11,13,14-pentaaza-6,9-methanonaphtho[1,8-ab]heptalene] are 860 nM and above 1000 nM.
For the molecule `C#Cc1c(F)ccc2cc(O)cc(-c3nc4c5c(nc(OCC6(CN7CCC[C@@H](F)C7)CC6)nc5c3F)N3C[C@H]5CC[C@H](N5)[C@H]3CC4)c12` [Example 67], the IC50 at GDP-loaded KRAS G12D is 0.08 nM. In the experiment with GP2D (KRAS G12D) cells, this molecule returned an EC50 of 1 nM.
On the same counts, the results for `C#Cc1c(F)ccc2cc(O)cc(-c3nc4c5c(nc(OCC6(CN7CCC(F)CC7)CC6)nc5c3F)N3C[C@H]5CC[C@H](N5)[C@H]3CC4)c12` [Example 68, 5-ethynyl-6-fluoro-4-((5aR,6S,9R)-1-fluoro-12-((1-((4-fluoropiperidin-1-yl)methyl)cyclopropyl)methoxy)-4,5,5a,6,7,8,9,10-octahydro-3,10a,11,13,14-pentaaza-6,9-methanonaphtho[1,8-ab]heptalen-2-yl)naphthalen-2-ol] are 0.05 nM and 0.6 nM.
